Measured values from patent US10190138B2, “Methods using short chain peracids to replace antibiotics for controlling fermentation process infection” (Ecolab USA Inc., priority 2012, dated 2019).

Key:
[1] = pH 4
Text: The issue of low solubility when using long chain peracids has been addressed by increasing the pH to above 7. […] Further, bleaching efficacy decreases proportionally with every pH unit increase over about 7.

Lactobacilli = conditions: 2 hours of contact time in the absence of yeast; cited from earlier work
L. fermentum = assay: MRS broth fermentation, CO2 respirometry; assay type: cell-based, Lactobacillus fermentum; conditions: 1 ppm, 1×10^5 cell/mL start
Method: Solutions of Vortexx and Octave were provided by the Ecolab, Inc. The antibiotic Virginiamycin was purchased from SantaCruz Biotechnology. Ethanol Red yeast (Fermentis), and Lactobacillus fermentum were revived from 10% glycerol stocks maintained at […]. Yeast was grown at 30° C. under aerobic conditions in either liquid YPD medium or on YPD agar prior to use in propagations and fermentations. Bacteria were grown at 30° C. under anaerobic conditions in either liquid MRS broth, and or on MRS agar plates. Liquefied corn mash and gluco-amylase enzyme was provided by Illinois River Energy (Rochelle, Ill.).
Fermentations were conducted in Wheaton glass bottles placed in a 30° C. recirculating water bath atop an 8-position magnetic stir-plate. Each bottle was sealed with a rubber septum cap and connected through ⅛″ tubing to a respirometer instrument (Challenger Instruments), which quantified the off-gassing of CO2 during fermentation.
MRS broth fermentations were conducted in 0.125 L Wheaton bottles, each containing the 100 mL of MRS broth and 4 mL propagated bacteria. […]
MRS broth, which contains only 0.6% solids compared to typical liquefied corn mash at 30% solids, represents a relatively simple test of the effectiveness of the peracid chemistries for controlling Lactobacillus growth. […] All bottles were placed monitored via respirometry under identical conditions. […]

O=C(CCCCCCCCCCS(=O)(=O)O)OO [11-sulfoundecane peroxoic acid]
solubility [1]: about 1.3%

OO [hydrogen peroxide]
hydrogen peroxide required for effective bacterial control (Lactobacilli): 600 ppm

Virginiamycin
CO2 production (L. fermentum): failed to produce any CO2 | bacterial growth (L. fermentum): no bacterial growth
